Marks after values point to notes of the source that are not given here.
Experiments:
[1] = Cell viability, MTT test in MC3T3-E1; format: cell-based; details: mouse, MC3T3-E1 cells (osteoblast-like cell line), MC3T3-E1, negative control = 100
Description: MC3T3-E1 cells ((IAA) the Institution of Physical and Chemical Research), osteoblast-like cell line derived from the mouse fetus cranial bone cells, were inoculated into the 96 well plate at 4,000 cells/well. As a medium, the basal medium prepared in the Example 3 supplemented with fargesin at 2 to 80 μM was used. Pre-culture was performed by using the basal medium only under the conditions of 5% CO2 and 37 degree centigrade for 3 days. After that, the conditioned medium was changed to fresh medium with fargesin; the culture was performed under the conditions of 5% CO2 and 37 degree centigrade for 3 days. On the day 4 from the culture start, the conditioned medium was changed to the fresh medium; the culture was further performed under the conditions of 5% CO2 and 37 degree centigrade for 3 days. After the termination of the culture, the following MTT test, measurement of ALP activities, and the staining were performed.
Cell viability was measured by using MTT test. MTT reagent was prepared by dissolving 50 mg of 3-(4,5-dimethyl-thiazol-2-yl)-2,5-diphenyl tetrazolium bromide in 10 ml of PBS (−). After the termination of the culture, the medium containing fargesin was partially removed from each well to adjust the solution volume to 100 μL. Ten μl of the MTT reagent was then added to each well to be reacted to give blue-violet color in the CO2 incubator.
After the termination of the reaction, all medium was removed from each well, 100 μl of DMSO as a lysis solution was added to each well, and then the absorbance was measured at 570 nm to study the viability of live cells.

[2] = system: metatarsals of mouse fetus; experiment: Organ culture of mouse fetus metatarsals, calcein staining; format: cell-based; details: 0.3 μM, 7 days organ culture, versus 0.3% DMSO negative control
Description: Eagle's minimum essential mediums (MEM, Life Technologies Japan Corporation (Invitrogen)) was used to prepare the organ culture medium by adding 1% of penicillin/streptomycin (Life Technologies Japan Corporation (GIBCO)), 0.25% of fetal bovine serum (Sigma-Aldrich Co. LLC.), 50 μg/ml of ascorbic acid (Wako Pure Chemical Industries, Ltd.), 1 mM of β-glycerophosphoric acid (Sigma-Aldrich Co. LLC.), and 1 μg/ml of calcein (Sigma-Aldrich Co. LLC.). As a test substance, 0.3 μM of fargesin, or as a control, 0.3% of DMSO (final cone., Wako Pure Chemical Industries, Ltd.) was added to the organ culture medium. Fargesin was used the same solution prepared in Example 1 containing 0.3% DMSO as the final concentration.
On 15 of pregnancy, mouse fetuses were took from pregnant female ICR mice (Japan SLC, Inc.) by Caesarean operation (E15.5) from the 15th days of a pregnant ICR female mouse by Caesarean section. Left and right metatarsals of the fetus were excised to be placed into the organ culture medium. The organ culture was performed under the conditions of 5% CO2 at 37 degree centigrade for 7 days to observe the effect on long axis direction.
The long axis of the bone grows depending on that of epiphyseal cartilage existing between an epiphysis and a shaft. […] Then, calcification was occurred from the occification center (ossification). […]

[3] = system: ovariectomized mouse (OVX mouse); experiment: Bone formation in ovariectomized mouse (OVX mouse), dosing after bone resorption induction period, femur pQCT; format: in vivo; details: for Bone strength (polar coordinates torsion strength): compared to Control OVX group; for Bone density of cancellous bone, relative value / Bone density of cortical bone, relative value / Bone density of the whole bones, relative value: 5M Sham = 100; for Bone density of cancellous bone / Bone density of cortical bone / Bone thickness of cortical bone / Cross section area of cortical bone / Perimeter of cortical bone adventitia / Perimeter of cortical bone lining membrane / Bone density of the whole bones: OVX mice, 3 months dosing after 2-month induction; for Bone density of the whole bones: right femur, pQCT
Description: Four-week-old female Slc; ddy mice (Japan SLC, Inc.) were purchased, and they were divided into 8 groups without acclimate keeping (6 mice per group). They were anesthetized by using 50 mg/kg of pentobarbital to be ovariectomized (it is referred to as “OVX” herein below) or to have Sham operation (it is referred to as “Sham” herein below) under the anesthesia which is given by intraperitoneal administration of 50 mg/kg of Somnopentyl (pentobarbital sodium).
From the second day of the ovariectomy (or Sham operation), each group was maintained under the condition of 12 hour light/dark cycle, 23±3 degree centigrade as the room temperature, and humidity 55±5% for 2 months as the bone resorption induction period. The animal bedding was exchanged twice a week and all fresh bedding was used at all times. CRF-1 (Oriental Yeast Co., Ltd.) as the feed and deionized water as drinking water were freely given.
After two month period from the test start, the bone resorption induction period, the test substance were given to each group at the amount shown in the following Table 7 for 3 month.
Ninety % of MeOH fraction (Shin-i) obtained in Example 1 and Fargesin (may refer to “Far” thereafter) were respectively dissolved into TD solution at the concentration shown in Table 7, and then they were administrated per os.
Human PTH (1-34) (herein below, it is sometimes referred to as “hPTH (1-34)”) were dissolved in distilled water at the concentration of 80 μg/kg/day, and it was administrated subcutaneously.
After 3 month from the administration start, the mice belonging to all of the groups were weighed. They were anesthetized by using diethylether, and were collected their blood from their hearts, and then they were died. Then, organs such as the uterus, the white adipose tissue (WAT), the brown adipose tissue (BAT), the liver, the spleen, and both left and right lower extremities were removed. The left and right lower extremities were separated into the femurs and the tibias, and they were stored in 70% EtOH under the room temperature.
The muscles were removed from the obtained femur (right), and then its bone density and the like were measured by using pQCT employed in Example 1 under the following conditions.
Recognition of contour (CONTMODE): 2 (auto search of ROI)
Recognition method of cancellous bone: Surface & Area
Ration of cancellous bone area to all of the cross section areas: 35%
CORTMODE used in CORTBD: 1* * Voxels not larger than the standard value for distinguishing the cortical bone from the cancellous bone (threshold: threshold) were omitted. Each tissue weight was also measured.
TH value used in CORTBD: 690
Among the all data of cancellous bone density obtained from pQCT, both of the highest and the lowest data were deleted to obtain the Median. As to the other parameters were treated as the same as this, the graph was made with N=6. Statistical analysis was performed by using the Dennett's two-sided t test.

COc1ccc([C@@H]2OC[C@H]3[C@@H]2CO[C@@H]3c2ccc3c(c2)OCO3)cc1OC [fargesin, Fargesin]
viability at 6 days, 2 µM ([1]; 2 μM): 106 ± 3.2% | viability at 6 days, 6 µM ([1]; 6 μM): 105 ± 3.3% | viability at 6 days, 20 µM ([1]; 20 μM): 100 ± 3.4% | viability at 6 days, 60 µM ([1]; 60 μM): 89.1 ± 3.9% | viability at 6 days, 80 µM ([1]; 80 μM): 92.6 ± 3.7% | extension of the metatarsal in long axis direction (calcified area, calcein fluorescence) [2]: extended longer vertically | Bone strength (polar coordinates torsion strength) ([3]; 2 mg administration group p.o.): significantly increased | Bone strength (polar coordinates torsion strength) ([3]; 40 mg administration group p.o.): significantly increased | Bone density of cancellous bone, relative value ([3]; Far 2: 2 mg/kg/day p.o.): 54.9 | Bone density of cortical bone, relative value ([3]; Far 2: 2 mg/kg/day p.o.): 92.7 | Bone density of the whole bones, relative value ([3]; Far 2: 2 mg/kg/day p.o.): 81.4 | Bone density of cancellous bone, relative value ([3]; Far 20: 20 mg/kg/day p.o.): 58.5 | Bone density of cortical bone, relative value ([3]; Far 20: 20 mg/kg/day p.o.): 92.9 | Bone density of the whole bones, relative value ([3]; Far 20: 20 mg/kg/day p.o.): 83.1 | Bone density of cancellous bone, relative value ([3]; Far 40: 40 mg/kg/day p.o.): 79.2 | Bone density of cortical bone, relative value ([3]; Far 40: 40 mg/kg/day p.o.): 90.4 | Bone density of the whole bones, relative value ([3]; Far 40: 40 mg/kg/day p.o.): 85.7 | Bone density of cancellous bone ([3]; Far 2: 2 mg/kg/day p.o.): 64.10 ± 25.48 mg/cm^2 | Bone density of cortical bone ([3]; Far 2: 2 mg/kg/day p.o.): 911.65 ± 30.15 mg/cm^2 | Bone thickness of cortical bone ([3]; Far 2: 2 mg/kg/day p.o.): 0.20 ± 0.03 mm | Cross section area of cortical bone ([3]; Far 2: 2 mg/kg/day p.o.): 1.46 ± 0.23 mm^2 | Perimeter of cortical bone adventitia ([3]; Far 2: 2 mg/kg/day p.o.): 8.02 ± 0.26 mm | Perimeter of cortical bone lining membrane ([3]; Far 2: 2 mg/kg/day p.o.): 6.79 ± 0.19 mm | Bone density of the whole bones ([3]; Far 2: 2 mg/kg/day p.o.): 427.83 ± 36.00 mg/cm^2 | Bone density of cancellous bone ([3]; Far 20: 20 mg/kg/day p.o.): 68.22 ± 21.67 mg/cm^2 | Bone density of cortical bone ([3]; Far 20: 20 mg/kg/day p.o.): 914.57 ± 43.90 mg/cm^2 | Bone thickness of cortical bone ([3]; Far 20: 20 mg/kg/day p.o.): 0.20 ± 0.03 mm | Cross section area of cortical bone ([3]; Far 20: 20 mg/kg/day p.o.): 1.48 ± 0.18 mm^2 | Perimeter of cortical bone adventitia ([3]; Far 20: 20 mg/kg/day p.o.): 8.04 ± 0.55 mm | Perimeter of cortical bone lining membrane ([3]; Far 20: 20 mg/kg/day p.o.): 6.78 ± 0.68 mm | Bone density of the whole bones ([3]; Far 20: 20 mg/kg/day p.o.): 437.00 ± 49.48 mg/cm^2 | Bone density of cancellous bone ([3]; Far 40: 40 mg/kg/day p.o.): 92.37 ± 41.29 mg/cm^2 | Bone density of cortical bone ([3]; Far 40: 40 mg/kg/day p.o.): 889.97 ± 23.31 mg/cm^2 | Bone thickness of cortical bone ([3]; Far 40: 40 mg/kg/day p.o.): 0.21 ± 0.02* mm | Cross section area of cortical bone ([3]; Far 40: 40 mg/kg/day p.o.): 1.56 ± 0.19* mm^2 | Perimeter of cortical bone adventitia ([3]; Far 40: 40 mg/kg/day p.o.): 8.14 ± 0.39 mm | Perimeter of cortical bone lining membrane ([3]; Far 40: 40 mg/kg/day p.o.): 6.83 ± 0.38 mm | Bone density of the whole bones ([3]; Far 40: 40 mg/kg/day p.o.): 450.57 ± 33.72 mg/cm^2
